Reference: US4540700A, “Treatment of diabetic complications with certain spiro-imidazolidine-diones” (Alcon Laboratories, Inc., priority 1984, dated 1985)
pIC50: −log10 of the molar value.

How the values were obtained:
[1] = test system: cataract formation in galactocemic rats; experiment: in vivo dose response by intubation (per oral) in galactocemic rats, cataract (vacuole) formation; parameters: species or system Charles River CD (Sprague-Dawley derived) male rats
Description: B. In vivo dose response studies were conducted to test the in vivo activity of the following compounds by intubation (per oral) in galactocemic rats on a 30% galactose diet previously described:
Stock suspensions of the test compounds and all dilutions of the compound were formulated with 0.03% by weight Tween 80.
Healthy, Charles River CD (outbred albino, Sprague-Dawley derived) male rats, aged 20-30 days, without observable ocular defects and ranging in weight from 35-45 grams, were acclimated to experimental conditions (in quarantine) for two days prior to beginning the study.
Rats were individually assigned to one of twenty-three groups according to a random number schedule. Two rats, belonging to the same drug-diet treatment group, were housed per cage. Treatment and control groups consisted of six (6) rats each with no replacement in the event of death, and were designated as follows:
Lenses of all eyes were examined with a hand-held ophthalmoscope in the early stages of cataract development and a penlight for the stages, snowflake-like, snowflake, and nuclear cataract. Lens grading occurred every day for the first ten study days, and then every other day until study Day 14.
The relative potency determination was made at 7 drug levels over half log dose intervals. The response (percent cataracts formed and/or the time to cataract formation) was plotted against mg/kg and/or moles/kg.
The study was directed to the suppression and/or elimination of the initial stages of cataract development characterized by vacuoles or snowflake-likeopacities only. It was assumed therefore that suppression and/or elimination of vacuoles or lens opacification by the test drugs affects the transport, absorption and/or metabolism of galactose in such a manner as to prevent subsequent osmotic disturbances normally leading to tissue degeneration and advanced cataract. Advanced cataract defined as stages 2-4 of the Sipple classification was assumed to be of secondary importance to the etiology of cataract inhibition.
In the event where cataract stage other than vacuole formed, such as snowflake-like opacities, this cataract was counted similarly as vacuole in percent cataract formation.
This study yielded this expected effect in the control groups.
All animals were fed Purina Laboratory Chow and water, ad libitum, for the two day acclimation period. All drugs were dosed orally by intubation using an animal feeding needle (Popper and Sons), 18 or 20 gauge, attached to a 1 or 3 ml syringe. Once the dosing time schedule was established, the schedule was followed throughout the study to compensate for any diurnal variation.
The animals were kept on a twelve hour day/night cycle. The temperature and humidity were determined each day at the scheduled dosing time of 1:00 p.m.
The animals were weighed every other day and adjustments to dosage amounts to compensate for weight gain were made each day prior to the dose time. All food was routinely withheld from all animal groups for four hours (9:00 a.m.) prior to the drug dose and restored two hours (3:00 p.m.) post-dose. Otherwise sufficient amounts of chow or diet mixture were maintained in the food hopper to allow the animals to eat ad libitum. There were two days of drug dosage with the animals remaining on Purina Laboratory Chow (Days 1 and 2). The 30% galactose diet mixture was introduced to the animals two hours post-dose on Day 3 which constituted Day 1 of the study.
All eyes were examined with a hand-held ophthalmoscope and/or penlight at the times designated in the Experimental Design section.
It has been found in previous studies that dilation of the eye with a mydriactic (i.e. Mydriacyl) is not necessary for accurate grading, due to the semi-transparent nature of the rat iris. In the early stages (i.e., grades -, ±, and +) the lens was observed by reflecting the ophthalmoscope beam off the retina back through the lens and iris. Using this technique, vacuoles appear as dark, almost opaque patches. […]

[2] = target: Rat Aldose Reductase (Rattus norvegicus, UniProt P07943); experiment: Rat Aldose Reductase Inhibition; format: biochemical
Description: Biophysical Chemistry, 8 (1978) 81-85; P. F. Kador, L. O. Merola and J. H
Kinoshita Documenta Ophthamologica, 18 (1979) 117.

[3] = relative to Sarges Racemic, observation day 12, 95% confidence limits

Compound: O=C1NC(=O)C2(N1)c1ccccc1-c1ccc(F)cc12 (racemic) [Compound L, dl-Spiro(2-fluorofluoren-9,4'-imidazolidine)-2',5'-dione]
- Percent of Rat Eyes With at Least Vacuoles Formed ([1]; 4.0 mg/kg p.o., Day 9): 0.0%
- Percent of Rat Eyes With at Least Vacuoles Formed ([1]; 4.0 mg/kg p.o., Day 9, listed as 2-fluoro): 0%
- Percent of Rat Eyes With at Least Vacuoles Formed ([1]; 4.0 mg/kg p.o., Day 10): 0.0%
- Percent of Rat Eyes With at Least Vacuoles Formed ([1]; 4.0 mg/kg p.o., Day 10, listed as 2-fluoro): 0%
- Percent of Rat Eyes With at Least Vacuoles Formed ([1]; 4.0 mg/kg p.o., Day 12): 0.0%
- Percent of Rat Eyes With at Least Vacuoles Formed ([1]; 4.0 mg/kg p.o., Day 12, listed as 2-fluoro): 0%
- Percent of Rat Eyes With at Least Vacuoles Formed ([1]; 4.0 mg/kg p.o., Day 14): 0.0%
- Percent of Rat Eyes With at Least Vacuoles Formed ([1]; 4.0 mg/kg p.o., Day 14, listed as 2-fluoro): 0%
- Percent of Rat Eyes With at Least Vacuoles Formed ([1]; 12.6 mg/kg p.o., Day 0): 0%
- Percent of Rat Eyes With at Least Vacuoles Formed ([1]; 12.6 mg/kg p.o., Day 1): 0%
- Percent of Rat Eyes With at Least Vacuoles Formed ([1]; 12.6 mg/kg p.o., Day 2): 0%
- Percent of Rat Eyes With at Least Vacuoles Formed ([1]; 12.6 mg/kg p.o., Day 3): 0%
- Percent of Rat Eyes With at Least Vacuoles Formed ([1]; 12.6 mg/kg p.o., Day 4): 0%
- Percent of Rat Eyes With at Least Vacuoles Formed ([1]; 12.6 mg/kg p.o., Day 5): 0%
- Percent of Rat Eyes With at Least Vacuoles Formed ([1]; 12.6 mg/kg p.o., Day 6): 0.0%
- Percent of Rat Eyes With at Least Vacuoles Formed ([1]; 12.6 mg/kg p.o., Day 6, listed as 2-fluoro): 0%
- Percent of Rat Eyes With at Least Vacuoles Formed ([1]; 12.6 mg/kg p.o., Day 7): 0.0%
- Percent of Rat Eyes With at Least Vacuoles Formed ([1]; 12.6 mg/kg p.o., Day 7, listed as 2-fluoro): 0%
- Percent of Rat Eyes With at Least Vacuoles Formed ([1]; 12.6 mg/kg p.o., Day 8): 0.0%
- Percent of Rat Eyes With at Least Vacuoles Formed ([1]; 12.6 mg/kg p.o., Day 8, listed as 2-fluoro): 0%
- Percent of Rat Eyes With at Least Vacuoles Formed ([1]; 12.6 mg/kg p.o., Day 9): 0.0%
- Percent of Rat Eyes With at Least Vacuoles Formed ([1]; 12.6 mg/kg p.o., Day 9, listed as 2-fluoro): 0%
- Percent of Rat Eyes With at Least Vacuoles Formed ([1]; 12.6 mg/kg p.o., Day 10): 0.0%
- Percent of Rat Eyes With at Least Vacuoles Formed ([1]; 12.6 mg/kg p.o., Day 10, listed as 2-fluoro): 0%
- Percent of Rat Eyes With at Least Vacuoles Formed ([1]; 12.6 mg/kg p.o., Day 12): 0.0%
- Percent of Rat Eyes With at Least Vacuoles Formed ([1]; 12.6 mg/kg p.o., Day 12, listed as 2-fluoro): 0%
- Percent of Rat Eyes With at Least Vacuoles Formed ([1]; 12.6 mg/kg p.o., Day 14): 0.0%
- Percent of Rat Eyes With at Least Vacuoles Formed ([1]; 12.6 mg/kg p.o., Day 14, listed as 2-fluoro): 0%
- Percent of Rat Eyes With at Least Vacuoles Formed ([1]; 40 mg/kg p.o., Day 0): 0%
- Percent of Rat Eyes With at Least Vacuoles Formed ([1]; 40 mg/kg p.o., Day 1): 0%
- Percent of Rat Eyes With at Least Vacuoles Formed ([1]; 40 mg/kg p.o., Day 2): 0%
- Percent of Rat Eyes With at Least Vacuoles Formed ([1]; 40 mg/kg p.o., Day 3): 0%
- Percent of Rat Eyes With at Least Vacuoles Formed ([1]; 40 mg/kg p.o., Day 4): 0%
- Percent of Rat Eyes With at Least Vacuoles Formed ([1]; 40 mg/kg p.o., Day 5): 0%
- Percent of Rat Eyes With at Least Vacuoles Formed ([1]; 40 mg/kg p.o., Day 6): 0.0%
- Percent of Rat Eyes With at Least Vacuoles Formed ([1]; 40 mg/kg p.o., Day 6, listed as 2-fluoro): 0%
- Percent of Rat Eyes With at Least Vacuoles Formed ([1]; 40 mg/kg p.o., Day 7): 0.0%
- Percent of Rat Eyes With at Least Vacuoles Formed ([1]; 40 mg/kg p.o., Day 7, listed as 2-fluoro): 0%
- Percent of Rat Eyes With at Least Vacuoles Formed ([1]; 40 mg/kg p.o., Day 8): 0.0%
- Percent of Rat Eyes With at Least Vacuoles Formed ([1]; 40 mg/kg p.o., Day 8, listed as 2-fluoro): 0%
- Percent of Rat Eyes With at Least Vacuoles Formed ([1]; 40 mg/kg p.o., Day 9): 0.0%
- Percent of Rat Eyes With at Least Vacuoles Formed ([1]; 40 mg/kg p.o., Day 9, listed as 2-fluoro): 0%
- Percent of Rat Eyes With at Least Vacuoles Formed ([1]; 40 mg/kg p.o., Day 10): 0.0%
- Percent of Rat Eyes With at Least Vacuoles Formed ([1]; 40 mg/kg p.o., Day 10, listed as 2-fluoro): 0%
- Percent of Rat Eyes With at Least Vacuoles Formed ([1]; 40 mg/kg p.o., Day 12): 0.0%
- Percent of Rat Eyes With at Least Vacuoles Formed ([1]; 40 mg/kg p.o., Day 12, listed as 2-fluoro): 0%
- Percent of Rat Eyes With at Least Vacuoles Formed ([1]; 40 mg/kg p.o., Day 14): 0.0%
- Percent of Rat Eyes With at Least Vacuoles Formed ([1]; 40 mg/kg p.o., Day 14, listed as 2-fluoro): 0%
- activity in vivo relative to the Sarges compound ([1]; rat studies): unexpectedly and significantly more active
- Relative Potency (antilog) [1, 3]: 4.58
- log relative potency for eyes with vacuoles or more advanced cataracts [1, 3]: 0.6605
- pIC50 [2]: 6.82
